From patent publication US20220042033A1, “COMPOSITION AND METHOD FOR CONFERRING AND/OR ENHANCING TOLERANCE AGAINST HERBICIDES BY USING VARIANTS OF PPO” (FarmHannong Co., Ltd., priority 2017, published 2022)

What was measured:
[1] = test system: E. coli BT3(ΔPPO) transformed with Myxococcus xanthus MxPPO (SEQ ID NO: 3) variant M365V; experiment: Herbicide tolerance test in PPO-deficient E. coli BT3(ΔPPO), growth on plates; type: cell-based; conditions: Table 9, light, tiafenacil to 2000 μM, saflufenacil to 200 μM, flumioxazin to 100 μM
Procedure: (§2) The mutated CyPPO gene obtained from the Example 2 was transformed to BT3 (ΔPPO) strain which is deficient of PPO activity and cultured in LB media with PPO-inhibiting herbicide, thereby examining whether growth of transformed BT3 was not inhibited.
(§3) BT3 competent cells were transformed with the pET303-ApPPO1 and pET303-MxPPO plasmids and those with a mutation(s) constructed in Example 2 respectively, and were cultured in LB agar media containing carbenicillin (Gold Biotechnology, Co., Ltd.).
(§4) Single colony of E. coli transformed with each CyPPO gene was cultured in 3 ml of LB broth containing carbenicillin overnight, and then was subcultured until absorbance (OD600) reached 0.5 to 1. Then, it was diluted with LB broth to OD600=0.5. Again, the diluted solution was serially diluted 4 times by a factor of one tenth.
(§5) The LB agar media (LB 25 g/l, Bacto agar 15 g/l) containing carbenicillin (100 μg/ml) and 0 to 4,000 μM of various herbicides dissolved in DMSO was prepared. Next, 10 μl of each diluted solution was dropped on the plate and cultured at 37° C. under light (Tables 7, 9 and 10, FIGS. 2 to 6, 13 to 20) or dark (Tables 8 and 11, FIGS. 7 to 12, 21 to 24) for 16 to 20 hours. Then, the extent of tolerance was evaluated.
(§6) The extent of herbicide tolerance of the ApPPO1 or MxPPO mutated genes was evaluated by comparing that of mutated genes with that of ApPPO1 or MxPPO wild type. […]

[2] = target: T1, Myxococcus xanthus MxPPO (SEQ ID NO: 3) variant L332T, fused to MBP (Myxococcus xanthus, UniProt P56601, L332T); experiment: PPO enzyme inhibition assay (IC50), MBP-fused PPO (Table 15); type: biochemical
T1 construct: made in house; host or cells: BL21 CodonPlus(DE3) E. coli
Procedure: (§7) Thus, PPO proteins of wild type and variants were expressed as fused to MBP and were used for experiments.
(§8) In order to express wild type and variant proteins of ApPPO1 and MxPPO, those genes were introduced into pMAL-c2x vector (refer to FIG. 25), respectively.
(§9) The following process for purification of PPO protein was performed in a 4° C. cold room. […] The column was washed with 3 column volumes of buffer and the presence of protein in the washing solution was examined. When the protein was no longer detected, the washing procedure was terminated. Then, the MBP-PPO protein was eluted with approximately 2 column volumes of buffer containing 20 mM maltose. The protein concentration of each eluent was determined and the elution was stopped when the protein was no longer detected. Ten microliter of each fraction was investigated for protein quantification and SDS-PAGE analysis. […]
(§10) Hundred and eighty microliters of a reaction mixture containing the purified PPO protein were placed in 96 well plates and 20 μl of purified PPO proteins were added. […] The reaction proceeded at room temperature for 30 min and the fluorescence of protoporphyrin IX was measured using Microplate reader (Sense, Hidex) (excitation: 405 nm; emission: 633 nm). […] To this, 2.7 N HCl was added, and the absorbance at 408 nm was measured. […]

[3] = test system: E. coli BT3(ΔPPO) transformed with Auxenochlorella protothecoides ApPPO1 (SEQ ID NO: 1) variant Y422C (YC); experiment: Herbicide tolerance test in PPO-deficient E. coli BT3(ΔPPO), growth on plates; type: cell-based; conditions: Table 7, light, 37° C., 16 to 20 hours, vs wild type at highest herbicide concentration
Procedure: as §2, §3, §4, §5
(§11) The extent of herbicide tolerance of the ApPPO1 or MxPPO mutated genes was evaluated by comparing that of mutated genes with that of ApPPO1 or MxPPO wild type. The relative tolerance was represented with “+” as a factor of 10 times.
(§12) In Tables 7 to 11, tolerance level was presented as ‘−’ of tolerance of wild type and of variants equivalent to that of wild type, and was done as ‘+’ per each 10 fold resistance until ‘+++++’ as maximal resistance. […] A dilution series (OD600=0.5, 0.05, 0.005, 0.0005, 0.00005) was made and spotted on LB agar plates supplemented with herbicides.

[4] = test system: E. coli BT3(ΔPPO) transformed with Auxenochlorella protothecoides ApPPO1 (SEQ ID NO: 1) variant Y422I (YI); type: cell-based; conditions: Table 7, light, 37° C., 16 to 20 hours, vs wild type at highest herbicide concentration
Procedure: as §2, §3, §4, §5, §11, §12

[5] = test system: E. coli BT3(ΔPPO) transformed with Auxenochlorella protothecoides ApPPO1 wild type, SEQ ID NO: 1; experiment: Herbicide tolerance test in PPO-deficient E. coli BT3(ΔPPO), growth on plates; type: cell-based; conditions: ApPPO1 WT, 37° C., 16 to 20 hours
Procedure: (§1) Then, the extent of tolerance was evaluated.

[6] = test system: E. coli BT3(ΔPPO) transformed with Myxococcus xanthus MxPPO wild type, SEQ ID NO: 3; experiment: as above; type: cell-based; conditions: MxPPO WT, light
Procedure: as §1

[7] = target: Auxenochlorella protothecoides ApPPO1 (SEQ ID NO: 1) variant A215L, fused to MBP (Auxenochlorella protothecoides, UniProt A0A087SQM0, A215L); experiment: biochemical
Procedure: as §7, §9
Hundred and eighty microliters of a reaction mixture containing the purified PPO protein were placed in 96 well plates and 20 μl of purified PPO proteins were added. […] The reaction proceeded at room temperature for 30 min and the fluorescence of protoporphyrin IX was measured using Microplate reader (Sense, Hidex) (excitation: 405 nm; emission: 633 nm). […] To this, 2.7 N HCl was added, and the absorbance at 408 nm was measured. A standard curve was generated using standard protoporphyrin IX, and PPO activity was measured by calibration of protoporphyrin IX using the standard curve of protoporphyrin IX.

[8] = target: T2, Myxococcus xanthus MxPPO (protoporphyrinogen IX oxidase), wild type, SEQ ID NO: 3, fused to MBP (Myxococcus xanthus, UniProt P56601); experiment: PPO enzyme inhibition assay (IC50), MBP-fused PPO (Table 15); type: biochemical; conditions: protoporphyrinogen IX 50 μM, room temperature, 30 min
T2 construct: For encoding the PPO protein (MxPPO); made in house; host or cells: BL21 CodonPlus(DE3) E. coli

[9] = target: Auxenochlorella protothecoides ApPPO1 (SEQ ID NO: 1) variant V360M, fused to MBP (Auxenochlorella protothecoides, UniProt A0A087SQM0, V360M); experiment: PPO enzyme inhibition assay (IC50), MBP-fused PPO; type: biochemical
[10] = test system: E. coli BT3(ΔPPO) transformed with Auxenochlorella protothecoides ApPPO1 (SEQ ID NO: 1) variant A215L (AL); experiment: Herbicide tolerance test in PPO-deficient E. coli BT3(ΔPPO), growth on plates; type: cell-based; conditions: Table 7, light, 37° C., 16 to 20 hours, vs wild type at highest herbicide concentration
Procedure: as §2, §3, §4, §5, §11, §12

[11] = target: T3, Myxococcus xanthus MxPPO (SEQ ID NO: 3) variant A170C, fused to MBP (Myxococcus xanthus, UniProt P56601, A170C); experiment: PPO enzyme inhibition assay (IC50), MBP-fused PPO (Table 15); type: biochemical
T3 construct: made in house; host or cells: BL21 CodonPlus(DE3) E. coli
Procedure: as §7, §8, §9, §10

[12] = test system: E. coli BT3(ΔPPO) transformed with Auxenochlorella protothecoides ApPPO1 (SEQ ID NO: 1) variant Y422M (YM); experiment: Herbicide tolerance test in PPO-deficient E. coli BT3(ΔPPO), growth on plates; type: cell-based; conditions: Table 7, light, 37° C., 16 to 20 hours, vs wild type at highest herbicide concentration
Procedure: as §2, §3, §4, §5, §11, §12

[13] = target: T4, Myxococcus xanthus MxPPO (SEQ ID NO: 3) variant I311M, fused to MBP (Myxococcus xanthus, UniProt P56601, I311M); experiment: biochemical
T4 construct: made in house; host or cells: BL21 CodonPlus(DE3) E. coli
Procedure: as §7, §8, §9, §10

[14] = test system: E. coli BT3(ΔPPO) transformed with Myxococcus xanthus MxPPO (SEQ ID NO: 3) variant A170C; experiment: Herbicide tolerance test in PPO-deficient E. coli BT3(ΔPPO), growth on plates; type: cell-based; conditions: Table 9, light, tiafenacil to 2000 μM, saflufenacil to 200 μM, flumioxazin to 100 μM
Procedure: as §2, §3, §4, §5, §6

[15] = target: Auxenochlorella protothecoides ApPPO1 (protoporphyrinogen IX oxidase), wild type, SEQ ID NO: 1, fused to MBP (Auxenochlorella protothecoides, UniProt A0A087SQM0); experiment: PPO enzyme inhibition assay (IC50), MBP-fused PPO; type: biochemical; conditions: ApPPO1 WT; 50 μM protoporphyrinogen IX, pH 8.0, room temperature, 30 min
[16] = test system: E. coli BT3(ΔPPO) transformed with Myxococcus xanthus MxPPO (SEQ ID NO: 3) variant I311M; experiment: Herbicide tolerance test in PPO-deficient E. coli BT3(ΔPPO), growth on plates; type: cell-based; conditions: Table 9, light, tiafenacil to 2000 μM, saflufenacil to 200 μM, flumioxazin to 100 μM
Procedure: as §2, §3, §4, §5, §6

[17] = target: T5, Myxococcus xanthus MxPPO (SEQ ID NO: 3) variant F329V, fused to MBP (Myxococcus xanthus, UniProt P56601, F329V); experiment: PPO enzyme inhibition assay (IC50), MBP-fused PPO (Table 15); type: biochemical
T5 construct: For encoding the PPO protein (MxPPO); made in house; host or cells: BL21 CodonPlus(DE3) E. coli
Procedure: as §7, §8, §9, §10

[18] = target: Auxenochlorella protothecoides ApPPO1 (SEQ ID NO: 1) variant L389T, fused to MBP (Auxenochlorella protothecoides, UniProt A0A087SQM0, L389T); experiment: PPO enzyme inhibition assay (IC50), MBP-fused PPO; type: biochemical
[19] = test system: E. coli BT3(ΔPPO) transformed with Myxococcus xanthus MxPPO (SEQ ID NO: 3) variant A170L; experiment: Herbicide tolerance test in PPO-deficient E. coli BT3(ΔPPO), growth on plates; type: cell-based; conditions: Table 9, light, tiafenacil to 2000 μM, saflufenacil to 200 μM, flumioxazin to 100 μM
Procedure: as §2, §3, §4, §5, §6

T2 sequence (P56601 whole entry, the tested form may be a part): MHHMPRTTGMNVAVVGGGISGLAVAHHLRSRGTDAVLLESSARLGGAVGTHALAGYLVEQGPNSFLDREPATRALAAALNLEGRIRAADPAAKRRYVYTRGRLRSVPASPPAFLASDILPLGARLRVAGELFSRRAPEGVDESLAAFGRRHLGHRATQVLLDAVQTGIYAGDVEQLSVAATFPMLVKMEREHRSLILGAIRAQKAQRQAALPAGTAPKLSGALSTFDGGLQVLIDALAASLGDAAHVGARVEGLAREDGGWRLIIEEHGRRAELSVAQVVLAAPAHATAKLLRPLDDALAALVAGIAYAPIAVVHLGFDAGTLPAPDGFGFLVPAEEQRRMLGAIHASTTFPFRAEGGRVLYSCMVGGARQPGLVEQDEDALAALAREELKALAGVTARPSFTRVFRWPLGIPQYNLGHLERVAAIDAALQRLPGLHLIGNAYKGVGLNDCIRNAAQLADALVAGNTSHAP
Auxenochlorella protothecoides ApPPO1 (SEQ ID NO: 1) variant V360M, fused to MBP, sequence (A0A087SQM0 entry or part of it V360M): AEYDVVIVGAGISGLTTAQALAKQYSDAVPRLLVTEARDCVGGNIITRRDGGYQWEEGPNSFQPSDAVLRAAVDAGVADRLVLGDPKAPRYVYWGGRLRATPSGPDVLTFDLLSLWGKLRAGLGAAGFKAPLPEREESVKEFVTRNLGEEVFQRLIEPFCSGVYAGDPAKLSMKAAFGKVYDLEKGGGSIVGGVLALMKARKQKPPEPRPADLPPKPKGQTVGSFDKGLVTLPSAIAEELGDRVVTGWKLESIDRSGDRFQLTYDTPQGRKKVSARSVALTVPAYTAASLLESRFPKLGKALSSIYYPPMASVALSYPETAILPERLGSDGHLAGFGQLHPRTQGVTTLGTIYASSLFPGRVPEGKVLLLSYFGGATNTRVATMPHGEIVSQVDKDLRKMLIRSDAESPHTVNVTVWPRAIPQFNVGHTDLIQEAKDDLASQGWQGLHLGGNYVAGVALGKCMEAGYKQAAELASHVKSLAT
T1 sequence (P56601 whole entry L332T, the tested form may be a part): as the sequence (P56601 whole entry, the tested form may be a part) above, with L332T counted along it
Auxenochlorella protothecoides ApPPO1 (SEQ ID NO: 1) variant L389T, fused to MBP, sequence (A0A087SQM0 entry or part of it L389T): as the sequence (A0A087SQM0 entry or part of it V360M) above, with M310V, L339T counted along it
Auxenochlorella protothecoides ApPPO1 (protoporphyrinogen IX oxidase), wild type, SEQ ID NO: 1, fused to MBP, sequence (A0A087SQM0 51-532): as the sequence (A0A087SQM0 entry or part of it V360M) above, with M310V counted along it
Auxenochlorella protothecoides ApPPO1 (SEQ ID NO: 1) variant A215L, fused to MBP, sequence (A0A087SQM0 entry or part of it A215L): as the sequence (A0A087SQM0 entry or part of it V360M) above, with A165L, M310V counted along it
T5 sequence (P56601 whole entry F329V, the tested form may be a part): as the sequence (P56601 whole entry, the tested form may be a part) above, with F329V counted along it
T4 sequence (P56601 whole entry I311M, the tested form may be a part): as the sequence (P56601 whole entry, the tested form may be a part) above, with I311M counted along it
T3 sequence (P56601 whole entry A170C, the tested form may be a part): as the sequence (P56601 whole entry, the tested form may be a part) above, with A170C counted along it

## COC(=O)CCNC(=O)C(C)Sc1cc(-n2c(=O)cc(C(F)(F)F)n(C)c2=O)c(F)cc1Cl (stereo not drawn) [tiafenacil]
[1]
  relative herbicide tolerance level: + (1-9 fold higher tolerance)
[2]
  IC50: 1010 nM
[3]
  relative herbicide tolerance level: ++ (10-99 fold higher tolerance)
[4]
  relative herbicide tolerance level: ++ (10-99 fold higher tolerance)
[5]; Table 7, light, vs wild type at highest herbicide concentration
  relative herbicide tolerance level: −
[5]; Table 8, dark, tiafenacil to 200 μM, flumioxazin to 100 μM, sulfentrazone to 400 μM
  relative herbicide tolerance level: −
[6]; Table 9, tiafenacil to 2000 μM, saflufenacil to 200 μM, flumioxazin to 100 μM
  relative herbicide tolerance level: −
[6]; Table 10, tiafenacil 2000 μM, flumioxazin to 400 μM, sulfentrazone to 1000 μM
  relative herbicide tolerance level: −
[7]
  IC50: 3460 nM
[8]
  IC50: 0.242 µM
[9]
  IC50: 75 nM
[10]
  relative herbicide tolerance level: ++ (10-99 fold higher tolerance)
[11]
  IC50: 1680 nM
[12]
  relative herbicide tolerance level: +++ (100-999 fold higher tolerance)
[13]
  IC50: 964 nM
[14]
  relative herbicide tolerance level: + (1-9 fold higher tolerance)
[15]
  IC50: 21 nM
[16]
  relative herbicide tolerance level: ++ (10-99 fold higher tolerance)
[17]
  IC50: 239 nM
[18]
  IC50: 716 nM
[19]
  relative herbicide tolerance level: + (1-9 fold higher tolerance)
